We go through 25 compounds from patent publication US20240239790A1, “7-Morpholino-1,6-Naphthyridin-5-yl Derivatives and Pharmaceutical Compositions Thereof Useful as DNA-PK Inhibitor” (adMare Therapeutics Society, priority 2021, published 2024).

The target in this test is T1, DNA-PK phosphorylation at Serine 2056 (Homo sapiens, UniProt P78527).
T1 construct: FaDu cells were purchased from ATCC; host or cells: FaDu
The test is described as follows: Cellular Assay for Inhibition of DNA-PK Phosphorylation at Serine 2056 in FaDu cells (sandwich ELISA, neocarzinostatin). Conditions: pSer2056 DNA-PK, Table 3. The format is cell-based. As for the experimental part:
FaDu cells were purchased from ATCC and maintained in MEM alpha medium (Life Technologies, cat. no. 12561) supplemented with 10% fetal bovine serum, and 1% GlutaMAX at 37° C. supplemented with 5% CO2. 50,000 cells were seeded to each well of a 96-well cell culture plate in 50 μL of culture medium and incubated for 16-24 hours. Three-fold serially diluted compounds were prepared in DMSO. Culture media was used to prepare compound treatments to 0.3% DMSO (dimethyl sulphoxide) content. Compound treatments were added to the cells for 1 hour prior incubation, followed by the addition of neocarzinostatin in fresh culture medium to 1 μg/mL final concentration for an additional 2 hours incubation to induce DNA DSBs (double-strand breaks). DMSO controls were incubated with fresh culture medium alone for the additional two hours incubation. The cells were then lysed and frozen at −20° C. Cell lysates were thawed on wet ice and protein concentrations quantified by BCA Protein Assay (Thermo #23225). Lysis buffer was used to normalize lysates by protein content and all lysates were then investigated by sandwich ELISA by means of DNA-PK-specific antibodies (Abcam ab44815: total DNA-PK; ab124918: phosphoserine-2056 DNA-PK) in sandwich ELISA format on the MSD S600MM platform (MesoScale Discovery). % inhibition was calculated for all data points: =1−(DATA_PT−AVERAGE(DMSO controls))/(AVERAGE(NCS controls)−AVERAGE(DMSO controls)). Logarithm of the molar concentration of compound was plotted against percent inhibition to calculate IC50 values, with curve fit settings for data fit to log(inhibitor) vs. normalized response—Variable slope using curve fit software (GraphPad Prism).
(In an ELISA, binding on a coated surface is turned into a signal by an enzyme label.)
Broadly, the IC50 is the point on the concentration scale where inhibition reaches its midpoint. Regarding `CN1CCN(c2cnc(N[C@H]3CC[C@@H](Oc4nc(N5CCOCC5)cc5ncc(NS(C)(=O)=O)cc45)CC3)nc2)CC1` [LFA2032, N-[5-[4-[[5-(4-methylpiperazin-1-yl)pyrimidin-2-yl]amino]cyclohexoxy]-7-morpholino-1,6-naphthyridin-3-yl]methanesulfonamide], the IC50 is less than 100 nM.

In turn, `CS(=O)(=O)Nc1cnc2cc(N3CCOCC3)nc(O[C@H]3CC[C@@H](Nc4ccc5c(n4)CCNC5)CC3)c2c1` [LFA2003, N-[7-morpholino-5-[4-(5,6,7,8-tetrahydro-1,6-naphthyridin-2-ylamino)cyclohexoxy]-1,6-naphthyridin-3-yl]methanesulfonamide] yielded an IC50 of 100 to 1000 nM.

On to `CN1CCN(CCOc2ccnc(N[C@H]3CC[C@@H](Oc4nc(N5CCOCC5)cc5ncc(NS(C)(=O)=O)cc45)CC3)n2)CC1` [LFA2026, N-[5-[4-[[4-[2-(4-methylpiperazin-1-yl)ethoxy]pyrimidin-2-yl]amino]cyclohexoxy]-7-morpholino-1,6-naphthyridin-3-yl]methanesulfonamide], for which the IC50 was 100 to 1000 nM.

Regarding `CN1CCC(Oc2cnc(N[C@H]3CC[C@@H](Oc4nc(N5CCOCC5)cc5ncc(NS(C)(=O)=O)cc45)CC3)nc2)C1` (stereo partly shown) [LFA2025, N-[5-[4-[[5-(1-methylpyrrolidin-3-yl)oxypyrimidin-2-yl]amino]cyclohexoxy]-7-morpholino-1,6-naphthyridin-3-yl]methanesulfonamide], the IC50 was 100 to 1000 nM.

With `CS(=O)(=O)Nc1cnc2cc(N3CCOCC3)nc(O[C@H]3CC[C@@H](Nc4ncc5c(n4)CCNC5)CC3)c2c1` [LFA2005, N-[7-morpholino-5-[4-(5,6,7,8-tetrahydropyrido[4,3-d]pyrimidin-2-ylamino)cyclohexoxy]-1,6-naphthyridin-3-yl]methanesulfonamide], the IC50 is 100 to 1000 nM.

As to `CS(=O)(=O)Nc1cnc2cc(N3CCOCC3)nc(O[C@H]3CC[C@@H](Nc4ncc(N5CCNCC5)cn4)CC3)c2c1` [LFA2014, N-[7-morpholino-5-[4-[(5-piperazin-1-ylpyrimidin-2-yl)amino]cyclohexoxy]-1,6-naphthyridin-3-yl]methanesulfonamide], the IC50 was 100 to 1000 nM.

In turn, `CN1CCN(CCOc2cnc(N[C@H]3CC[C@@H](Oc4nc(N5CCOCC5)cc5ncc(O)cc45)CC3)nc2)CC1` [LFA2034, 5-[4-[[5-[2-(4-methylpiperazin-1-yl)ethoxy]pyrimidin-2-yl]amino]cyclohexoxy]-7-morpholino-1,6-naphthyridin-3-ol] yielded an IC50 of less than 100 nM.

`CS(=O)(=O)Nc1cnc2cc(N3CCOCC3)nc(O[C@H]3CC[C@@H](Nc4ncc(N5CCN(CCF)CC5)cn4)CC3)c2c1` [LFA2013]: the half-inhibitory concentration (IC50) is less than 100 nM.

With `CN1CCC(Oc2cnc(N[C@H]3CC[C@@H](Oc4nc(N5CCOCC5)cc5ncc(O)cc45)CC3)nc2)C1` (stereo partly shown) [LFA2033, 5-[4-[[5-(1-methylpyrrolidin-3-yl)oxypyrimidin-2-yl]amino]cyclohexoxy]-7-morpholino-1,6-naphthyridin-3-ol], the 50% inhibitory concentration (IC50) was less than 100 nM.

On to `CS(=O)(=O)Nc1cnc2cc(N3CCOCC3)nc(O[C@H]3CC[C@@H](Nc4ncc(OCCO)cn4)CC3)c2c1` [LFA2028, N-[5-[4-[[5-(2-hydroxyethoxy)pyrimidin-2-yl]amino]cyclohexoxy]-7-morpholino-1,6-naphthyridin-3-yl]methanesulfonamide], for which the IC50 was less than 100 nM.

Compound `CC(Oc1cnc2cc(N3CCOCC3)nc(O[C@H]3CC[C@@H](Nc4cncc(C(F)(F)F)n4)CC3)c2c1)c1cnc([N+](=O)[O-])n1C` (stereo partly shown) [LFA2096, N-[4-[[3-[1-(3-methyl-2-nitro-imidazol-4-yl)ethoxy]-7-morpholino-1,6-naphthyridin-5-yl]oxy]cyclohexyl]-6-(trifluoromethyl)pyrazin-2-amine] displayed an IC50 of 10000 to 30000 nM.

On to `CS(=O)(=O)Nc1cnc2cc(N3CCOCC3)nc(O[C@H]3CC[C@@H](Nc4ncc(N5CC6CNCC6C5)cn4)CC3)c2c1` (stereo partly shown) [LFA2015, N-[5-[4-[[5-(2,3,3a,4,6,6a-hexahydro-1H-pyrrolo[3,4-c]pyrrol-5-yl)pyrimidin-2-yl]amino]cyclohexoxy]-7-morpholino-1,6-naphthyridin-3-yl]methanesulfonamide], for which the IC50 was in the range of 100 to 1000 nM.

As to `CS(=O)(=O)Nc1cnc2cc(N3CCOCC3)nc(O[C@H]3CC[C@@H](Nc4ncc5c(n4)CNCC5)CC3)c2c1` [LFA2004, N-[7-morpholino-5-[4-(5,6,7,8-tetrahydropyrido[3,4-d]pyrimidin-2-ylamino)cyclohexoxy]-1,6-naphthyridin-3-yl]methanesulfonamide], the IC50 fell in the range of 100 to 1000 nM.

Consider `CS(=O)(=O)Nc1cnc2cc(N3CCOCC3)nc(O[C@H]3CC[C@@H](Nc4ncc(CN5CCOCC5)cn4)CC3)c2c1` [LFA2020, N-[7-morpholino-5-[4-[[5-(morpholinomethyl)pyrimidin-2-yl]amino]cyclohexoxy]-1,6-naphthyridin-3-yl]methanesulfonamide], for which the IC50 was less than 100 nM.

For `CS(=O)(=O)Nc1cnc2cc(N3CCOCC3)nc(O[C@H]3CC[C@@H](Nc4ncc(N5CC6CCC(C5)N6)cn4)CC3)c2c1` [LFA2016, N-[5-[4-[[5-(3,8-diazabicyclo[3.2.1]octan-3-yl)pyrimidin-2-yl]amino]cyclohexoxy]-7-morpholino-1,6-naphthyridin-3-yl]methanesulfonamide], the IC50 was in the range of 100 to 1000 nM.

The compound `CS(=O)(=O)Nc1cnc2cc(N3CCOCC3)nc(O[C@H]3CC[C@@H](Nc4ncc(OCCN)cn4)CC3)c2c1` [LFA2027, N-[5-[4-[[5-(2-aminoethoxy)pyrimidin-2-yl]amino]cyclohexoxy]-7-morpholino-1,6-naphthyridin-3-yl]methanesulfonamide] gave an IC50 of less than 100 nM.

`CS(=O)(=O)Nc1cnc2cc(N3CCOCC3)nc(O[C@H]3CC[C@@H](Nc4ncc(OCCN5CCOCC5)cn4)CC3)c2c1` [LFA2023, N-[7-morpholino-5-[4-[[5-(2-morpholinoethoxy)pyrimidin-2-yl]amino]cyclohexoxy]-1,6-naphthyridin-3-yl]methanesulfonamide]: the IC50 is less than 100 nM.

Consider `CN1CCC(Oc2ccc(N[C@H]3CC[C@@H](Oc4nc(N5CCOCC5)cc5ncc(NS(C)(=O)=O)cc45)CC3)nc2)C1` (stereo partly shown) [LFA2006, N-[5-[4-[[5-(1-methylpyrrolidin-3-yl)oxy-2-pyridyl]amino]cyclohexoxy]-7-morpholino-1,6-naphthyridin-3-yl]methanesulfonamide], for which the IC50 is less than 100 nM.

In the case of `Cn1c(COc2cnc3cc(N4CCOCC4)nc(O[C@H]4CC[C@@H](Nc5nccnc5C#N)CC4)c3c2)cnc1[N+](=O)[O-]` [LFA2095, 3-[[4-[[3-[(3-methyl-2-nitro-imidazol-4-yl)methoxy]-7-morpholino-1,6-naphthyridin-5-yl]oxy]cyclohexyl]amino]pyrazine-2-carbonitrile], the IC50 lay in the range of 10000 to 30000 nM.

`CN1CCN(CCc2cnc(N[C@H]3CC[C@@H](Oc4nc(N5CCOCC5)cc5ncc(NS(C)(=O)=O)cc45)CC3)nc2)CC1` [LFA2031, N-[5-[4-[[5-[2-(4-methylpiperazin-1-yl)ethyl]pyrimidin-2-yl]amino]cyclohexoxy]-7-morpholino-1,6-naphthyridin-3-yl]methanesulfonamide] displayed an IC50 of less than 100 nM.

In turn, `Cc1nc(N[C@H]2CC[C@@H](Oc3nc(N4CCOCC4)cc4ncc(NS(C)(=O)=O)cc34)CC2)ncc1OCCN1CCOCC1` [LFA2040, N-[5-[4-[[4-methyl-5-(2-morpholinoethoxy)pyrimidin-2-yl]amino]cyclohexoxy]-7-morpholino-1,6-naphthyridin-3-yl]methanesulfonamide] gave an IC50 of less than 100 nM.

In turn, `CN1CCc2nc(N[C@H]3CC[C@@H](Oc4nc(N5CCOCC5)cc5ncc(O)cc45)CC3)ncc2C1` [LFA2078, 5-[4-[(6-methyl-7,8-dihydro-5H-pyrido[4,3-d]pyrimidin-2-yl)amino]cyclohexoxy]-7-morpholino-1,6-naphthyridin-3-ol] yielded an IC50 of less than 100 nM.

In turn, `CS(=O)(=O)Nc1cnc2cc(N3CCOCC3)nc(O[C@H]3CC[C@@H](Nc4ncc(N5CCN(C6COC6)CC5)cn4)CC3)c2c1` [LFA2019, N-[7-morpholino-5-[4-[[5-[4-(oxetan-3-yl)piperazin-1-yl]pyrimidin-2-yl]amino]cyclohexoxy]-1,6-naphthyridin-3-yl]methanesulfonamide] returned an IC50 of less than 100 nM.

In turn, `CS(=O)(=O)Nc1cnc2cc(N3CCOCC3)nc(O[C@H]3CC[C@@H](Nc4cc5c(cn4)CNCC5)CC3)c2c1` [LFA2002, N-[7-morpholino-5-[4-(5,6,7,8-tetrahydro-2,7-naphthyridin-3-ylamino)cyclohexoxy]-1,6-naphthyridin-3-yl]methanesulfonamide] returned an IC50 of 100 to 1000 nM.

In turn, `Cc1nc(N[C@H]2CC[C@@H](Oc3nc(N4CCOCC4)cc4ncc(NS(C)(=O)=O)cc34)CC2)ncc1OCCN1CCN(C)CC1` [LFA2039, N-[5-[4-[[4-methyl-5-[2-(4-methylpiperazin-1-yl)ethoxy]pyrimidin-2-yl]amino]cyclohexoxy]-7-morpholino-1,6-naphthyridin-3-yl]methanesulfonamide] showed an IC50 of less than 100 nM.
